# Earlier results in US6630442B1, “Reparatives for chemosurgery and laser (thermal) therapy” (priority 1997, dated 2003).
# Assays:
# [1] = test system: lipid peroxidation in tissues; conditions: tissues of vitamin E deficient chicks
# [2] = test system: skin damage by ultraviolet irradiation
# [3] = test system: acute damage to the skin by sunburn induced by ultraviolet irradiation
# cells = conditions: in vitro
# granulating wounds = conditions: applied to granulating wounds
# [4] = test system: partial thickness burns or split thickness epidermal burns; conditions: mixed with topical creams, applied twice daily
compound,measurement,setting,value
C[Se]CC[C@H](N)C(=O)O [selenomethionine],number of CD4+ T-cells in the reticular dermis of psoriatic lesions,"psoriasis; human, in vivo",statistically significant increase
same,skin levels of selenium dependent glutathione peroxidase,psoriasis; normal and psoriatic skin,unchanged
same,increase in blood selenium post treatment,psoriasis; psoriasis patients with normal pretreatment selenium blood levels,40%
same,in vivo lipid peroxidation,[1],inhibits in vivo lipid peroxidation
same,skin damage by ultraviolet irradiation (inflammation and pigmentation),[2]; mice treated with selenomethionine,significantly less skin damage by ultraviolet irradiation
same,onset and incidence of skin cancers,"[2]; mice treated with selenomethionine, UV irradiation",later onset and lesser incidence of skin cancers
same,selenium toxicity,"[2]; mouse, in vivo, po",no evidence of selenium toxicity
same,concentration of selenium in skin in areas of topical application,[2]; topical lotion versus comparable oral doses,greater than those of the experimental animals given comparable oral doses
same,"protection against acute UV damage to the skin, measured by the minimal erythema dose","[3]; eight women, topical lotion 0.002%, 0.02% and 0.05%, solar ultraviolet simulator",effective in protecting against acute UV damage to the skin
same,plasma levels of selenium,[3]; volunteers after topical selenomethionine,remained unchanged
(−)epigallo catechin gallate [EGCG],hydrogen peroxide formation,human leukocytes,inhibits hydrogen peroxide formation
"EGF: Epidermal growth factor is a 53 amino acid polypeptide which stimulates messenger RNA, DNA and protein synthesis (NSDSECPLSHDGYCLHDGVCMYIEALDKYACNCVVGYIGERCQYRDLKWWELR; Epidermal growth factor; UniProt P01133 971-1023, looked up)",exposure time needed to yield a mitogenic signal,cells,about five hours
same,concentrations of wound DNA and collagen hydroxyproline,granulating wounds,increase both the concentrations of DNA associated with cutaneous injury and of collagen hydroxyproline
same,healing process of wounds,[4],highly significant increase in the healing process
